Laboratory results as given in patent publication US8932626B2, “Felbinac-containing transdermally absorbable preparation” (Teikoku Seiyaku Co., Ltd., priority 2009, dated 2015).

How the values were obtained:
[1] = background art statement; cited from earlier work
[2] = In vitro rat skin permeability test (Test Example 1)
Description: The rat abdominal skin was exfoliated, the dermis side of the skin was directed to a side of a receptor layer, and its inside was filled with phosphate buffered saline. Water kept at 37° C. was circulated in a water jacket.

| releasing of ketoprofen (permeated amount through excised rat skin) ([2]; Comparative Study (2), FIG. 3, patch with ketoprofen and lidocaine (Comparative Example 4) versus only ketoprofen (Comparative Example 3)) | releasing effect of the anti-inflammatory analgesic obtained by formulating lidocaine ([2]; summary of Comparative Studies (1) to (3)) | Compound | solubility in various solvents [1] |
| --- | --- | --- | --- |
|  |  | O=C(O)Cc1ccc(-c2ccccc2)cc1 [Felbinac] | very low |
| inhibited significantly | not observed | CC(C(=O)O)c1cccc(C(=O)c2ccccc2)c1 (stereo not drawn) [ketoprofen] |  |
